Columns and labels:
[1] = target: Wee1-like protein kinase 2 (Homo sapiens) (UniProt P0C1S8); test: Inhibition of wild-type human partial length WEE2 (M204 to K492 residues) expressed in bacterial expression system at 1 uM by Kinomescan method relative to control
[2] = tested on: Proto-oncogene tyrosine-protein kinase receptor Ret (Homo sapiens), P07949 [M918T]; test: Inhibition of human partial length RET M918T mutant (E713 to D1014 residues) expressed in bacterial expression system at 1 uM by Kinomescan method relative to control
[3] = target: Tyrosine-protein kinase Lyn (Homo sapiens) (UniProt P07948); test: Inhibition of wild-type human partial length LYN (C219 to Q511 residues) expressed in bacterial expression system at 1 uM by Kinomescan method relative to control
Tyrosine-protein kinase Lyn (Homo sapiens), sequence (P07948 2-512 limits assumed): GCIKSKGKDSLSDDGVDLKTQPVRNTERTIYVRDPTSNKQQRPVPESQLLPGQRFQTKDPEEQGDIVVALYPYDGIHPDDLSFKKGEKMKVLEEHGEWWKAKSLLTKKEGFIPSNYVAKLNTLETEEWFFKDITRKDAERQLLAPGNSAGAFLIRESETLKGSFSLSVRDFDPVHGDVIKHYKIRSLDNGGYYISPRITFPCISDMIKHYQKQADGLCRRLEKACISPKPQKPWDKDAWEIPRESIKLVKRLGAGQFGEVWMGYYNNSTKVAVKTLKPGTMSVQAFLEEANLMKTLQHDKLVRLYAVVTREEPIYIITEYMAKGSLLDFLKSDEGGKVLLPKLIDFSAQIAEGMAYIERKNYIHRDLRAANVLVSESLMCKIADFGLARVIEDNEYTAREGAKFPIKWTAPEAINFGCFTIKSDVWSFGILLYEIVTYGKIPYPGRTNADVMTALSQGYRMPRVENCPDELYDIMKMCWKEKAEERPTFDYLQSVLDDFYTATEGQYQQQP

[4] = target: Serine/threonine-protein kinase Sgk2 (Homo sapiens) (UniProt Q9HBY8); test: Inhibition of wild-type human partial length SGK2 (L54 to C427 residues) expressed in mammalian expression system at 1 uM by Kinomescan method relative to control
Serine/threonine-protein kinase Sgk2 (Homo sapiens), sequence (Q9HBY8 whole entry, the tested form may be a part): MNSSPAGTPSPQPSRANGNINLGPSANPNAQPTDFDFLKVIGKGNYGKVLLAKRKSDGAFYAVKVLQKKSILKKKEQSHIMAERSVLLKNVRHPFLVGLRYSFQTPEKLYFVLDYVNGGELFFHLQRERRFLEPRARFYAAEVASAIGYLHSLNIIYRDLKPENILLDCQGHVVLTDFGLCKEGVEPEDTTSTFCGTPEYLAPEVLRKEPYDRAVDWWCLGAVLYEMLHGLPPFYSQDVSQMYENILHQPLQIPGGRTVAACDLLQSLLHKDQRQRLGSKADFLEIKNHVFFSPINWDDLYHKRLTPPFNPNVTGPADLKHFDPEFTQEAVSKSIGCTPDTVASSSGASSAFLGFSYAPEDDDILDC

[5] = target: Tyrosine-protein kinase SYK (Homo sapiens) (UniProt P43405); test: Inhibition of wild-type human partial length SYK (D354 to N635 residues) expressed in bacterial expression system at 1 uM by Kinomescan method relative to control
[6] = target: Serine/threonine-protein kinase TAO2 (Homo sapiens) (UniProt Q9UL54); test: Inhibition of wild-type human partial length TAOK2 (M1 to A320 residues) expressed in mammalian expression system at 1 uM by Kinomescan method relative to control
[7] = target: Serine/threonine-protein kinase PknB (Mycobacterium tuberculosis) (UniProt P9WI81); test: Inhibition of wild-type Mycobacterium tuberculosis partial length PKNB (M1 to G279 residues) expressed in mammalian expression system at 1 uM by Kinomescan method relative to control
Serine/threonine-protein kinase PknB (Mycobacterium tuberculosis), sequence (P9WI81 whole entry, the tested form may be a part): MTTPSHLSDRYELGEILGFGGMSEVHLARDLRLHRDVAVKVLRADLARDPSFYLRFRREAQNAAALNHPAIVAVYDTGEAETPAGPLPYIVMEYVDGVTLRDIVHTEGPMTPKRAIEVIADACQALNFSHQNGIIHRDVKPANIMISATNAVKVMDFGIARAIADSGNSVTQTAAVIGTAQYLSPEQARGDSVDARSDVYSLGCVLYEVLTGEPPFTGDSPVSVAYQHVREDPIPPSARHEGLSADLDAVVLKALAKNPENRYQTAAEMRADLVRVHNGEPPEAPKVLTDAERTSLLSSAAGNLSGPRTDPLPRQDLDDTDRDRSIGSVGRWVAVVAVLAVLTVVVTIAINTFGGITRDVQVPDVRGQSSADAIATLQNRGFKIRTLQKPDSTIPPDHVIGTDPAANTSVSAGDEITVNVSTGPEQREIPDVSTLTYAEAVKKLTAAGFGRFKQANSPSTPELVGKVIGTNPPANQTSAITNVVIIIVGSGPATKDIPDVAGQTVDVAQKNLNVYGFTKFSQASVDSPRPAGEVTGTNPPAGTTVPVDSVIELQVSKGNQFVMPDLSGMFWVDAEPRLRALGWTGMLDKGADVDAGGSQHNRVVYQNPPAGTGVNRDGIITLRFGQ

[8] = target: Proto-oncogene tyrosine-protein kinase Src (Homo sapiens) (UniProt P12931); test: Inhibition of wild-type human partial length SRC (L240 to L536 residues) expressed in bacterial expression system at 1 uM by Kinomescan method relative to control
[9] = target: NUAK family SNF1-like kinase 2 (Homo sapiens) (UniProt Q9H093); test: Inhibition of wild-type human partial length SNARK (P22 to A333 residues) expressed in mammalian expression system at 1 uM by Kinomescan method relative to control
NUAK family SNF1-like kinase 2 (Homo sapiens), sequence (Q9H093 whole entry, the tested form may be a part): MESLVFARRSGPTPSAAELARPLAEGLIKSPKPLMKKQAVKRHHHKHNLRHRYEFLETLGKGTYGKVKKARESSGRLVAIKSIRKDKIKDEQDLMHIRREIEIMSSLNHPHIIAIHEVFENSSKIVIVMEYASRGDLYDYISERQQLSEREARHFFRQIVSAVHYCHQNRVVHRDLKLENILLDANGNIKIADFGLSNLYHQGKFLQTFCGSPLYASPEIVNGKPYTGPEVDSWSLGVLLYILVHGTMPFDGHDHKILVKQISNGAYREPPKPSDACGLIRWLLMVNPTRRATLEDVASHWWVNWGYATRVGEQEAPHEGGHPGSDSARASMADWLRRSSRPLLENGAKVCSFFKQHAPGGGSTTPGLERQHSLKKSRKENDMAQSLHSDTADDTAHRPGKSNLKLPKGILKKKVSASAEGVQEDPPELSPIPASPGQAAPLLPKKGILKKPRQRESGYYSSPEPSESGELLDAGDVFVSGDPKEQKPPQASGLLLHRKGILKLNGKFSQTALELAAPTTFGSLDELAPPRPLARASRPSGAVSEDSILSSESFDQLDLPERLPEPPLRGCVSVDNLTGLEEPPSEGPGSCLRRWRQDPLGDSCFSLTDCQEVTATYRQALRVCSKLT

[10] = target: Serine/threonine-protein kinase PAK 6 (Homo sapiens) (UniProt Q9NQU5); test: Inhibition of wild-type human partial length PAK6 (N298 to C681 residues) expressed in bacterial expression system at 10 uM by Kinomescan method relative to control
[11] = target: TGF-beta receptor type-1 (Homo sapiens) (UniProt P36897); test: Inhibition of wild-type human partial length TGFBR1 (D179 to M503 residues) expressed in bacterial expression system at 10 uM by Kinomescan method relative to control
[12] = target: Serine/threonine-protein kinase Sgk1 (Homo sapiens) (UniProt O00141); test: Inhibition of wild-type human partial length SGK (I60 to L431 residues) expressed in mammalian expression system at 10 uM by Kinomescan method relative to control
[13] = tested on: ALK tyrosine kinase receptor (Homo sapiens), Q9UM73 [C1156Y]; test: Inhibition of wild-type human partial length ALK C1156Y mutant (I1088 to E1409 residues) expressed in mammalian expression system at 10 uM by Kinomescan method relative to control
[14] = target: Serine/threonine-protein kinase SBK1 (Homo sapiens) (UniProt Q52WX2); test: Inhibition of wild-type human partial length SBK1 (P23 to P348 residues) expressed in mammalian expression system at 10 uM by Kinomescan method relative to control
Serine/threonine-protein kinase SBK1 (Homo sapiens), sequence (Q52WX2 whole entry, the tested form may be a part): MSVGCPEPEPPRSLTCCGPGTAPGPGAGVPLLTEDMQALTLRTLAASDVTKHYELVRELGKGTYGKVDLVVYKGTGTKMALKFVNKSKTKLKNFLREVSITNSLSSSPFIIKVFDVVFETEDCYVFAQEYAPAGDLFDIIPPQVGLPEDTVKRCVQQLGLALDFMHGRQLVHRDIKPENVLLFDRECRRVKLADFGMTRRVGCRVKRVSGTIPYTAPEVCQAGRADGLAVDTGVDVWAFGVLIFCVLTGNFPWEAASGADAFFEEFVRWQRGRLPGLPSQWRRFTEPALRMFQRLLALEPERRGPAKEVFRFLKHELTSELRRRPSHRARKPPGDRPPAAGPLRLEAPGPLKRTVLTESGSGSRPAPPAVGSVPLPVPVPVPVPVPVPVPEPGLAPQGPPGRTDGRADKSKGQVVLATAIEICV

[15] = tested on: Tyrosine-protein kinase ABL1 (Homo sapiens), P00519 [H396P]; test: Inhibition of human phosphorylated ABL1 H396P mutant (S229 to K512 residues) expressed in mammalian expression system at 10 uM by Kinomescan method relative to control
[16] = target: Calcium/calmodulin-dependent protein kinase type 1G (Homo sapiens) (UniProt Q96NX5); test: Inhibition of wild-type human partial length CAMK1G (M1 to A342 residues) expressed in bacterial expression system at 10 uM by Kinomescan method relative to control
Calcium/calmodulin-dependent protein kinase type 1G (Homo sapiens), sequence (Q96NX5 whole entry, the tested form may be a part): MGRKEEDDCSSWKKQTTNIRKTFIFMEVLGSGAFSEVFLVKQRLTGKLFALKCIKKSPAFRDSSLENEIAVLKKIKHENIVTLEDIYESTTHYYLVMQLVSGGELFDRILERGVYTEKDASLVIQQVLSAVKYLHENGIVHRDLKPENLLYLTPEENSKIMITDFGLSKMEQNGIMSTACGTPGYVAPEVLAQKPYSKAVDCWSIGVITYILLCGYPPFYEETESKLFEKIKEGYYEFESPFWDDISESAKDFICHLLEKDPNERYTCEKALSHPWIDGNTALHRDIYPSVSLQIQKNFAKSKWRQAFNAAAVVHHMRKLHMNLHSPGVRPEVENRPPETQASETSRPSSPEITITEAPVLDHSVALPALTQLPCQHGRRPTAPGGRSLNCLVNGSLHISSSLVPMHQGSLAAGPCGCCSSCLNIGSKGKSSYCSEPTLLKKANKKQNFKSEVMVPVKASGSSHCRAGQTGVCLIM

[17] = target: Dual specificity tyrosine-phosphorylation-regulated kinase 1A (Homo sapiens) (UniProt Q13627); test: Inhibition of wild-type human partial length DYRK1A (H129 to S509 residues) expressed in mammalian expression system at 10 uM by Kinomescan method relative to control
[18] = tested on: Mast/stem cell growth factor receptor Kit (Homo sapiens), P10721 [UNDEFINED MUTATION]; test: Inhibition of human partial length KIT V559D/V654 double mutant (Y545 to D952 residues) expressed in bacterial expression system at 10 uM by Kinomescan method relative to control
[19] = target: Myosin-IIIa (Homo sapiens) (UniProt Q8NEV4); test: Inhibition of wild-type human partial length MYO3A (M1 to K338 residues) expressed in bacterial expression system at 10 uM by Kinomescan method relative to control
Myosin-IIIa (Homo sapiens), sequence (Q8NEV4 whole entry, the tested form may be a part): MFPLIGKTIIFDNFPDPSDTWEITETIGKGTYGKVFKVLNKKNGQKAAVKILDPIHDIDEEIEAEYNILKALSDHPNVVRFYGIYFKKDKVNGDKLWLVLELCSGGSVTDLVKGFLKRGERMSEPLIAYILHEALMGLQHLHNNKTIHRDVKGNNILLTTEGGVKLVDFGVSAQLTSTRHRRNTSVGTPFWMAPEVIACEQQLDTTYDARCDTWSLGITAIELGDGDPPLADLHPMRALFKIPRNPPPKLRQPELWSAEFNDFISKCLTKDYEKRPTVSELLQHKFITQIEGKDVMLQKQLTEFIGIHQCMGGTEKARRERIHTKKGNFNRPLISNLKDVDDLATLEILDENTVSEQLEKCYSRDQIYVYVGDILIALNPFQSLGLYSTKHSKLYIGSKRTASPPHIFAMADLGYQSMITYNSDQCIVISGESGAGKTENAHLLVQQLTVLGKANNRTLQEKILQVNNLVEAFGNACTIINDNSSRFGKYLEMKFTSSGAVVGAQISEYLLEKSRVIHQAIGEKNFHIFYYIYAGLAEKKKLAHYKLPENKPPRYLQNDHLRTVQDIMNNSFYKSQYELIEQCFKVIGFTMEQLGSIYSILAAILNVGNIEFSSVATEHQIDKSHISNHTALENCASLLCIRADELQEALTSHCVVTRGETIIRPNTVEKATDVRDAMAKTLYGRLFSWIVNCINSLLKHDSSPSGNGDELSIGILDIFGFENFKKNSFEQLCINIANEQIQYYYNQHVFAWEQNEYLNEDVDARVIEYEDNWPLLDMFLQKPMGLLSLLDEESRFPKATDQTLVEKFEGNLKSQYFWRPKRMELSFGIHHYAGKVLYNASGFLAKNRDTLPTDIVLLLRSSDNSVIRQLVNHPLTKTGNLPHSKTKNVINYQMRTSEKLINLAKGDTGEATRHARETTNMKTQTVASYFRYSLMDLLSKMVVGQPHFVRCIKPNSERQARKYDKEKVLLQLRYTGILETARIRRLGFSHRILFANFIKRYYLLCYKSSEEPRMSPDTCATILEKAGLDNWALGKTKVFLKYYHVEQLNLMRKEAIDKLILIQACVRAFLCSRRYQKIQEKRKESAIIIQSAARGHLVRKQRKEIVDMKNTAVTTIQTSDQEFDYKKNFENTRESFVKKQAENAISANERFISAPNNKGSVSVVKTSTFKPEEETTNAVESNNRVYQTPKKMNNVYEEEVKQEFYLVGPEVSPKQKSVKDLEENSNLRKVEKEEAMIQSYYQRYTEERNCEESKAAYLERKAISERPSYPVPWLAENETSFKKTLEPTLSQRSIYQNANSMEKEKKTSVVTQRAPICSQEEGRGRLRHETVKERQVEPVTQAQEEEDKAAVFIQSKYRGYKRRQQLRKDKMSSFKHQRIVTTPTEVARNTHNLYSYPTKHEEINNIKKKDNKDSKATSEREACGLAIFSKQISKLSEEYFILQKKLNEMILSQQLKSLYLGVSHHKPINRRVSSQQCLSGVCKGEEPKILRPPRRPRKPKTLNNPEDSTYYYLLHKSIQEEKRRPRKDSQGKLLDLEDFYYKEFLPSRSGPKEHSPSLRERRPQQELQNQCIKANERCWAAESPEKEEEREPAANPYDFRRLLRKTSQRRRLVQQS

[20] = target: Insulin receptor-related protein (Homo sapiens) (UniProt P14616); test: Inhibition of wild-type human partial length INSRR (R950 to E1278 residues) expressed in bacterial expression system at 10 uM by Kinomescan method relative to control
[21] = target: Calcium/calmodulin-dependent protein kinase type 1 (Homo sapiens) (UniProt Q14012); test: Inhibition of wild-type human full length CAMK1 (M1 to L370 residues) expressed in bacterial expression system at 10 uM by Kinomescan method relative to control
Calcium/calmodulin-dependent protein kinase type 1 (Homo sapiens), sequence (Q14012 whole entry, looked up, the tested form may be a part): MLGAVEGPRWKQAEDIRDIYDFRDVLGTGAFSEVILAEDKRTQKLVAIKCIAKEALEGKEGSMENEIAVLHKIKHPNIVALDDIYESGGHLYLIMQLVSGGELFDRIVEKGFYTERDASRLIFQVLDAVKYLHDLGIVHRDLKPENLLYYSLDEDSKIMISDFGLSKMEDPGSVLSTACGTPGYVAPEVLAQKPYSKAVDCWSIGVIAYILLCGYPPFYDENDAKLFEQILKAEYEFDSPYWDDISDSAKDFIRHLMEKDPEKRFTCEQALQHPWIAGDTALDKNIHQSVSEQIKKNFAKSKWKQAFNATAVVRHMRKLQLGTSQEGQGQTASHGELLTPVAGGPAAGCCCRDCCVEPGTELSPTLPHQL

[22] = target: Phosphatidylinositol 4-phosphate 5-kinase type-1 gamma (Homo sapiens) (UniProt O60331); test: Inhibition of wild-type human partial length PIP5K1C (M1 to T668 residues) expressed in mammalian expression system at 10 uM by Kinomescan method relative to control
[23] = tested on: Leucine-rich repeat serine/threonine-protein kinase 2 (Homo sapiens), Q5S007 [G2019S]; test: Inhibition of human partial length LRRK2 G2019S mutant (H970 to E2527 residues) expressed in mammalian expression system at 10 uM by Kinomescan method relative to control
[24] = target: Serine/threonine-protein kinase TNNI3K (Homo sapiens) (UniProt Q59H18); test: Inhibition of wild-type human full length TNNI3K (M1 to S835 residues) expressed in bacterial expression system at 10 uM by Kinomescan method relative to control
[25] = target: Muscle, skeletal receptor tyrosine-protein kinase (Homo sapiens) (UniProt O15146); test: Inhibition of wild-type human partial length MUSK (M553 to V869 residues) expressed in bacterial expression system at 10 uM by Kinomescan method relative to control
[26] = target: Serine/threonine-protein kinase 24 (Homo sapiens) (UniProt Q9Y6E0); test: Inhibition of wild-type human partial length MST3 (A30 to S311 residues) expressed in bacterial expression system at 10 uM by Kinomescan method relative to control

`O=C(Nc1cccc([C@@H]2CN(c3ncnc4[nH]ccc34)CCN2CCO)c1)Nc1c(F)cccc1N1CCCC1` gave an inhibition [1] of 93%, an inhibition [2] of 0.05% and an inhibition [3] of 72%. The inhibition [4] was 63%, the inhibition [5] was 97% and the inhibition [6] was 85%. It also gave an inhibition [7] of 80%, an inhibition [8] of 71% and an inhibition [9] of 6.1%.
Compound `O=C(Nc1cccc([C@H]2CCCN(c3ncnc4[nH]ccc34)C2)c1)Nc1ccccc1N1CCCC1` has an inhibition [10] of 85%, an inhibition [11] of 96% and an inhibition [12] of 26%. It also gave an inhibition [13] of 57%, an inhibition [14] of 42% and an inhibition [15] of 51%. The inhibition [16] was 85%, the inhibition [17] was 81% and the inhibition [18] was 26%. It also gave an inhibition [19] of 52%, an inhibition [20] of 100% and an inhibition [21] of 24%. The inhibition [22] was 59%, the inhibition [23] was 63% and the inhibition [24] was 100%. It also gave an inhibition [25] of 97% and an inhibition [26] of 56%.

— ChEMBL document CHEMBL4387741, “Optimization of novel reversible Bruton's tyrosine kinase inhibitors identified using Tethering-fragment-based screens” (Bioorg Med Chem, 2019)
